Experimental data: ChEMBL document CHEMBL3885861, “Open TG-GATES”

Organism: Rattus norvegicus
Experiment: Open TG-GATES - Regimen: Daily Repeat
Type: toxicity, organism-based, Sprague-Dawley
Design: regimen Daily Repeat, gender Male, age 6 weeks
Details: in vivo, po, 0 mg/kg, route gavage, dose level Control; for APTT / Bas / Eos / Fbg / Hb / Ht / Lym / MCH / MCHC / MCV / Mono / Neu / PT / Plat / RBC / Ret / WBC: tissue Blood
[1] = 72 h, tissue Kidney, time 3 day
[2] = 72 h, tissue Plasma, time 3 day

In the case of `COC1=CC(=O)C[C@@H](C)[C@]12Oc1c(Cl)c(OC)cc(OC)c1C2=O` [GRISEOFULVIN], the TERMINAL_BW (72 h, time 3 day) is reported as 226.2 g, the APTT (72 h, time 3 day) is reported as 20.3 s and the Bas (72 h, time 3 day) is reported as 0%. It also gave an Eos (72 h, time 3 day) of 1%, a Fbg (72 h, time 3 day) of 209.6 mg/dL and a Hb (72 h, time 3 day) of 12.8 g/dL. For the same molecule, the Ht (72 h, time 3 day) was 38%, the Lym (72 h, time 3 day) was 81.8% and the MCH (72 h, time 3 day) was 21.4 pg. The MCHC (72 h, time 3 day) was 33.6%, the MCV (72 h, time 3 day) was 63.5 fL and the Mono (72 h, time 3 day) was 2.4%. It also gave a Neu (72 h, time 3 day) of 15%, a PT (72 h, time 3 day) of 13.1 s and a Plat (72 h, time 3 day) of 133.8 x10_4/uL. The RBC (72 h, time 3 day) was 598.2 x10_4/ul, the Ret (72 h, time 3 day) was 6.7% and the WBC (72 h, time 3 day) was 92 x10_2/uL. For the same molecule, the KIDNEY_L [1] was 0.9 g, the KIDNEY_R [1] was 0.9 g and the KIDNEY_TOTAL [1] was 1.9 g. For the same molecule, the LIVER (72 h, tissue Liver, time 3 day) was 10.4 g, the A/G [2] was 1.6 and the ALP [2] was 917.8 IU/L. For the same molecule, the ALT [2] was 35 IU/L, the AST [2] was 66.2 IU/L and the BUN [2] was 14.6 mg/dL. For the same molecule, the CRE [2] was 0.4 mg/dL, the Ca [2] was 10.6 mg/dL and the Cl [2] was 104.4 meq/L. It also gave a DBIL [2] of 0.1 mg/dL, a GLC [2] of 210.8 mg/dL and an IP [2] of 7.7 mg/dL. For the same molecule, the K [2] was 4 meq/L, the LDH [2] was 154 IU/L and the Na [2] was 141 meq/L. The PL [2] was 130.6 mg/dL, the RALB [2] was 3.3 g/dL and the TBIL [2] was 0.2 mg/dL. It also gave a TC [2] of 69 mg/dL, a TG [2] of 79 mg/dL and a TP [2] of 5.3 g/dL. It also gave a gamma-GTP [2] of 1.2 IU/L, a TERMINAL_BW ([…], time 7 day) of 261.4 g and a TERMINAL_BW ([…], time 14 day) of 310.7 g. The TERMINAL_BW ([…], time 28 day) was 391 g, the APTT ([…], time 7 day) was 18.8 s and the Bas ([…], time 7 day) was 0%. For the same molecule, the Eos ([…], time 7 day) was 0.8%, the Fbg ([…], time 7 day) was 236 mg/dL and the Hb ([…], time 7 day) was 14.1 g/dL. The Ht ([…], time 7 day) was 42%, the Lym ([…], time 7 day) was 78% and the MCH ([…], time 7 day) was 21.7 pg. It also gave an MCHC ([…], time 7 day) of 33.6%, an MCV ([…], time 7 day) of 64.8 fL and a Mono ([…], time 7 day) of 3%. For the same molecule, the Neu ([…], time 7 day) was 17.4%, the PT ([…], time 7 day) was 12.3 s and the Plat ([…], time 7 day) was 122.6 x10_4/uL. For the same molecule, the RBC ([…], time 7 day) was 647.4 x10_4/ul, the Ret ([…], time 7 day) was 5.2% and the WBC ([…], time 7 day) was 117.8 x10_2/uL. It also gave an APTT ([…], time 14 day) of 19.7 s, a Bas ([…], time 14 day) of 0% and an Eos ([…], time 14 day) of 1%. For the same molecule, the Fbg ([…], time 14 day) was 226.2 mg/dL, the Hb ([…], time 14 day) was 14.1 g/dL and the Ht ([…], time 14 day) was 42.2%. For the same molecule, the Lym ([…], time 14 day) was 81.2%, the MCH ([…], time 14 day) was 20.8 pg and the MCHC ([…], time 14 day) was 33.4%. The MCV ([…], time 14 day) was 62.2 fL, the Mono ([…], time 14 day) was 3% and the Neu ([…], time 14 day) was 14.4%. It also gave a PT ([…], time 14 day) of 12.4 s, a Plat ([…], time 14 day) of 117 x10_4/uL and an RBC ([…], time 14 day) of 678.6 x10_4/ul. The Ret ([…], time 14 day) was 3%, the WBC ([…], time 14 day) was 116.8 x10_2/uL and the APTT ([…], time 28 day) was 20.6 s. For the same molecule, the Bas ([…], time 28 day) was 0%, the Eos ([…], time 28 day) was 0.8% and the Fbg ([…], time 28 day) was 220 mg/dL. The Hb ([…], time 28 day) was 15.2 g/dL and the Ht ([…], time 28 day) was 44.8%.
